Measurements reported in patent publication US20240016811A1, “CANCER THERAPY USING A COMBINATION OF CDK7 INHIBITOR WITH AN ANTI-MICROTUBULE AGENT” (Aurigene Oncology Limited, priority 2020, published 2024).
“And” between values parts separate entries of the source, which are not always exact repeats. Identical values can stand only once.

Test system: DU 145 cells
Assay: Proliferation of DU 145 cells after 3-day treatment, measured using CTG reagent; single agents and combination, synergy analysed with CompuSyn
Type: cell-based
Details: for inhibition of proliferation in DU145 cells: single agents, conclusion in words
Experimental: The effect of 3-day compound treatment on cell proliferation was measured using CTG reagent.

CC(C)[C@H](C(=O)Nc1cc(C2CC2)[nH]n1)c1cccc(-c2ccc(NC(=O)/C=C/CN3CCOCC3)nc2)c1 (single isomer, unassigned) [Compound-44A]
% inhibition in proliferation (Compound-44A 0.00209 nM, Day-3, replicate columns): 0.7% and −2.6% and 2.1%
% inhibition in proliferation (Compound-44A 0.00627 nM, Day-3, replicate columns): −1.3% and 3.7% and −0.3%
% inhibition in proliferation (Compound-44A 0.01882 nM, Day-3, replicate columns): −4.7% and 2.1% and −5.1%
% inhibition in proliferation (Compound-44A 0.0565 nM, Day-3, replicate columns): −1.2% and 8.1% and 1.7%
% inhibition in proliferation (Compound-44A 0.1694 nM, Day-3, replicate columns): −3.1% and 4.7% and −5.4%
% inhibition in proliferation (Compound-44A 0.5081 nM, Day-3, replicate columns): 8.2% and 0.7% and 3.1%
% inhibition in proliferation (Compound-44A 1.5242 nM, Day-3, replicate columns): 1.6% and −1.5% and 5.6%
% inhibition in proliferation (Compound-44A 4.5725 nM, Day-3, replicate columns): 5.9% and 3.4%
% inhibition in proliferation (Compound-44A 13.7174 nM, Day-3, replicate columns): 13.0% and 12.9%
% inhibition in proliferation (Compound-44A 41.1523 nM, Day-3, replicate columns): 30.9% and 25.2%
% inhibition in proliferation (Compound-44A 123.4568 nM, Day-3, replicate columns): 56.2% and 55.9%
% inhibition in proliferation (Compound-44A 370.3704 nM, Day-3, replicate columns): 77.9% and 80.7%
% inhibition in proliferation (Compound-44A 1111.1111 nM, Day-3, replicate columns): 110.4% and 105.8%
% inhibition in proliferation (Compound-44A 3333.3333 nM, Day-3, replicate columns): 111.8% and 110.8%
% inhibition in proliferation (Compound-44A 10000.00 nM, Day-3, replicate columns): 106.1% and 106.3%
inhibition at 0.0005 µM (Homo sapiens, DU-145, 72 h, Compound-44A 0.5 nM alone (docetaxel 0), checkerboard, 3 days): 3.98%
inhibition at 0.0045 µM (Homo sapiens, DU-145, 72 h, Compound-44A 4.5 nM alone (docetaxel 0), checkerboard, 3 days): 4.81%
inhibition at 0.0137 µM (Homo sapiens, DU-145, 72 h, Compound-44A 13.7 nM alone (docetaxel 0), checkerboard, 3 days): 14.6%
inhibition at 0.0411 µM (Homo sapiens, DU-145, 72 h, Compound-44A 41.1 nM alone (docetaxel 0), checkerboard, 3 days): 29.1%
inhibition at 0.1234 µM (Homo sapiens, DU-145, 72 h, Compound-44A 123.4 nM alone (docetaxel 0), checkerboard, 3 days): 55.7%
inhibition at 0.3703 µM (Homo sapiens, DU-145, 72 h, Compound-44A 370.3 nM alone (docetaxel 0), checkerboard, 3 days): 77.6%
inhibition at 0.0045725 µM (Homo sapiens, DU-145, Compound-44A 4.5725 nM, Day-3, replicate columns): 5.1%
inhibition at 0.0137174 µM (Homo sapiens, DU-145, Compound-44A 13.7174 nM, Day-3, replicate columns): 18%
inhibition at 0.0411523 µM (Homo sapiens, DU-145, Compound-44A 41.1523 nM, Day-3, replicate columns): 31.2%
inhibition at 0.123457 µM (Homo sapiens, DU-145, Compound-44A 123.4568 nM, Day-3, replicate columns): 55%
inhibition at 0.37037 µM (Homo sapiens, DU-145, Compound-44A 370.3704 nM, Day-3, replicate columns): 74.1%
inhibition at 1.11111 µM (Homo sapiens, DU-145, Compound-44A 1111.1111 nM, Day-3, replicate columns): 109%
inhibition at 3.33333 µM (Homo sapiens, DU-145, Compound-44A 3333.3333 nM, Day-3, replicate columns): 112%
inhibition at 10 µM (Homo sapiens, DU-145, Compound-44A 10000.00 nM, Day-3, replicate columns): 107%
inhibition of proliferation in DU145 cells: dose dependent inhibition of proliferation

CC(=O)O[C@@]12CO[C@@H]1C[C@H](O)[C@@]1(C)C(=O)[C@H](O)C3=C(C)[C@@H](OC(=O)[C@H](O)[C@@H](NC(=O)OC(C)(C)C)c4ccccc4)C[C@@](O)([C@@H](OC(=O)c4ccccc4)[C@H]21)C3(C)C [Docetaxel, docetaxel]
% inhibition in proliferation (Docetaxel 0.0002 nM, Day-3, replicate columns): 1.6% and −0.5% and 3.2%
% inhibition in proliferation (Docetaxel 0.0007 nM, Day-3, replicate columns): −3.9% and −5.1% and 2.9%
% inhibition in proliferation (Docetaxel 0.0021 nM, Day-3, replicate columns): −2.5% and 1.2% and 3.4%
% inhibition in proliferation (Docetaxel 0.0188 nM, Day-3, replicate columns): 0.8% and 0.9% and 10.0%
% inhibition in proliferation (Docetaxel 0.0565 nM, Day-3, replicate columns): 8.8% and 16.0% and 24.0%
% inhibition in proliferation (Docetaxel 0.1694 nM, Day-3, replicate columns): 8.3% and 2.2% and 4.1%
% inhibition in proliferation (Docetaxel 0.5081 nM, Day-3, replicate columns): 15.5% and 18.3%
% inhibition in proliferation (Docetaxel 1.5242 nM, Day-3, replicate columns): 57.5% and 59.4%
% inhibition in proliferation (Docetaxel 4.5725 nM, Day-3, replicate columns): 98.6% and 99.2%
% inhibition in proliferation (Docetaxel 13.7174 nM, Day-3, replicate columns): 117.2% and 114.3%
% inhibition in proliferation (Docetaxel 41.1523 nM, Day-3, replicate columns): 123.1% and 120.5%
% inhibition in proliferation (Docetaxel 123.4568 nM, Day-3, replicate columns): 126.0% and 122.3%
% inhibition in proliferation (Docetaxel 370.3704 nM, Day-3, replicate columns): 125.0% and 123.2%
% inhibition in proliferation (Docetaxel 1111.1111 nM, Day-3, replicate columns): 125.2% and 121.8%
% inhibition in proliferation (Docetaxel 3333.3333 nM, Day-3, replicate columns): 124.1% and 121.7%
% inhibition in proliferation (Docetaxel 10000.00 nM, Day-3, replicate columns): 118.3% and 117.0%
inhibition at 200 fM (Homo sapiens, DU-145, 72 h, Docetaxel 0.0002 nM alone (Compound-44A 0), checkerboard, 3 days): 1.42%
inhibition at 700 fM (Homo sapiens, DU-145, 72 h, Docetaxel 0.0007 nM alone (Compound-44A 0), checkerboard, 3 days): 0%
inhibition at 2.1 pM (Homo sapiens, DU-145, 72 h, Docetaxel 0.0021 nM alone (Compound-44A 0), checkerboard, 3 days): 0.69%
inhibition at 18.8 pM (Homo sapiens, DU-145, 72 h, Docetaxel 0.0188 nM alone (Compound-44A 0), checkerboard, 3 days): 3.89%
inhibition at 56.5 pM (Homo sapiens, DU-145, 72 h, Docetaxel 0.0565 nM alone (Compound-44A 0), checkerboard, 3 days): 16.3%
inhibition at 0.0001694 µM (Homo sapiens, DU-145, 72 h, Docetaxel 0.1694 nM (Table 5: 0.17) alone (Compound-44A 0), checkerboard, 3 days): 4.86%
inhibition at 0.0005081 µM (Homo sapiens, DU-145, 72 h, Docetaxel 0.5081 nM (Table 5: 0.51) alone (Compound-44A 0), checkerboard, 3 days): 15.9%
inhibition at 0.00152 µM (Homo sapiens, DU-145, 72 h, Docetaxel 1.52 nM alone (Compound-44A 0), checkerboard, 3 days): 55.6%
inhibition at 0.00457 µM (Homo sapiens, DU-145, 72 h, Docetaxel 4.57 nM alone (Compound-44A 0), checkerboard, 3 days): 97.5%
inhibition at 0.01372 µM (Homo sapiens, DU-145, 72 h, Docetaxel 13.72 nM alone (Compound-44A 0), checkerboard, 3 days): 116%
inhibition at 0.04115 µM (Homo sapiens, DU-145, 72 h, Docetaxel 41.15 nM alone (Compound-44A 0), checkerboard, 3 days): 122%
inhibition at 0.12346 µM (Homo sapiens, DU-145, 72 h, Docetaxel 123.46 nM alone (Compound-44A 0), checkerboard, 3 days): 125%
inhibition at 0.37037 µM (Homo sapiens, DU-145, 72 h, Docetaxel 370.37 nM alone (Compound-44A 0), checkerboard, 3 days): 125%
inhibition at 1.11111 µM (Homo sapiens, DU-145, 72 h, Docetaxel 1111.11 nM alone (Compound-44A 0), checkerboard, 3 days): 124%
inhibition at 3.33333 µM (Homo sapiens, DU-145, 72 h, Docetaxel 3333.33 nM alone (Compound-44A 0), checkerboard, 3 days): 123%
inhibition at 10 µM (Homo sapiens, DU-145, 72 h, Docetaxel 10000.00 nM alone (Compound-44A 0), checkerboard, 3 days): 118%
inhibition at 6.3 pM (Homo sapiens, DU-145, 72 h, Docetaxel […] alone (Compound-44A 0), checkerboard, 3 days): 0%
inhibition at 0.0005081 µM (Homo sapiens, DU-145, Docetaxel 0.5081 nM, Day-3, replicate columns): 14%
inhibition at 0.0015242 µM (Homo sapiens, DU-145, Docetaxel 1.5242 nM, Day-3, replicate columns): 49.8%
inhibition at 0.0045725 µM (Homo sapiens, DU-145, Docetaxel 4.5725 nM, Day-3, replicate columns): 94.6%
inhibition at 0.0137174 µM (Homo sapiens, DU-145, Docetaxel 13.7174 nM, Day-3, replicate columns): 115%
inhibition at 0.0411523 µM (Homo sapiens, DU-145, Docetaxel 41.1523 nM, Day-3, replicate columns): 123%
inhibition at 0.123457 µM (Homo sapiens, DU-145, Docetaxel 123.4568 nM, Day-3, replicate columns): 126%
inhibition at 0.37037 µM (Homo sapiens, DU-145, Docetaxel 370.3704 nM, Day-3, replicate columns): 126%
inhibition at 1.11111 µM (Homo sapiens, DU-145, Docetaxel 1111.1111 nM, Day-3, replicate columns): 125%
inhibition at 3.33333 µM (Homo sapiens, DU-145, Docetaxel 3333.3333 nM, Day-3, replicate columns): 124%
inhibition at 10 µM (Homo sapiens, DU-145, Docetaxel 10000.00 nM, Day-3, replicate columns): 119%
inhibition of proliferation in DU145 cells: dose dependent inhibition of proliferation
